Here are results for 26 molecules from US20250353820A1, “ANTIVIRAL PYRAZOLOPYRIDINONE COMPOUNDS” (Novartis AG, priority 2019, published 2025).

pEC50, pIC50: −log10 of the molar value. Where two headings read alike, the source gives them in different places.

For assay [1], the target named is human CMV DNA polymerase UL54 (Human cytomegalovirus (strain AD169) (HHV-5) (Human herpesvirus 5), UniProt P08546). In words: biochemical.
The target of assay [2] is human HSV DNA polymerase UL30 (Human herpesvirus 1 (strain 17) (HHV-1) (Human herpes simplex virus 1), UniProt P04293). In words: biochemical. Conditions: 20 minutes at room temperature.
Assay [3] relates to Luciferase-encoding HCMV (AD169 strain). In words: microbe, parasite or virus in culture. Type of assay: cell-based.
The mark [4] stands for this setting: 100 pM CMV polymerase, 60 minutes at room temperature, read-out: CMV-polymerase Biochemical IC50.
Setting [5] is: 625 pM HSV polymerase, read-out: HSV-polymerase Biochemical IC50.
[6] abbreviates: read-out: CMV-Luc Cellular EC50, NN-NHDF cells, MOI of 1, 72 hrs.
Where [7] appears, read: HSV-polymerase Biochemical IC50, 625 pM HSV polymerase.

One may read the pIC50 as the IC50 on a negative log10 scale, so that one unit is a factor of ten. For the molecule `Cn1nc(C(=O)NCc2ccc(C#N)cc2)c2c1C(=O)N(CC1(S(=O)(=O)C3CCOC3)CC1)CC2` (single isomer, unassigned) [Example 170], the pIC50 in assay [1] (setting [4]) is 8.40; in assay [2] (setting [5]), 6.91.
The matching figures for `CNCC(O)C(C)(C)S(=O)(=O)C1(CN2CCc3c(C(=O)NCc4ccc(C#N)cc4)nn(C)c3C2=O)CC1` (single isomer, unassigned) [Example 202]: 8.70 and 7.52.
By pEC50 is commonly meant the EC50 on a negative log10 scale, so that one unit is a factor of ten. Take `Cn1nc(C(=O)NCc2ccc(C#N)cc2)c2c1C(=O)N(CC1(S(=O)(=O)C(C)(C)COC(F)CN)CC1)CC2` (single isomer, unassigned) [Example 82, (R)- or (S)-6-((1-((1-(2-amino-1-fluoroethoxy)-2-methylpropan-2-yl)sulfonyl)cyclopropyl)methyl)-N-(4-cyanobenzyl)-1-methyl-7-oxo-4,5,6,7-tetrahydro-1H-pyrazolo[3,4-c]pyridine-3-carboxamide]: the negative-log EC50 (pEC50) in assay [3] (setting [6]) was 7.54.
On the same count and under the same terms, to `Cn1nc(C(=O)NCc2ccc(C#N)cc2)c2c1C(=O)N(CC1(S(=O)(=O)C(C)(C)COC(F)CN)CC1)CC2` (single isomer, unassigned) [Example 83, (R)- or (S)-6-((1-((1-(2-amino-1-fluoroethoxy)-2-methylpropan-2-yl)sulfonyl)cyclopropyl)methyl)-N-(4-cyanobenzyl)-1-methyl-7-oxo-4,5,6,7-tetrahydro-1H-pyrazolo[3,4-c]pyridine-3-carboxamide] belongs 6.88.
Take `Cn1nc(C(=O)NCc2ccc(Cl)cc2)c2c1C(=O)N(CC1(S(=O)(=O)C(C)(CN)CO)CC1)CC2` (single isomer, unassigned) [Example 187]: in assay [2] (setting [5]), the pIC50 was 7.07. The negative-log EC50 (pEC50) in assay [3] (setting [6]) was 7.15.
As for `CC1Cc2c(C(=O)NCc3ccc(C#N)cc3)nn(C)c2C(=O)N1CC1(S(C)(=O)=O)CC1` (single isomer, unassigned) [Example 42, (R)- or (S)—N-(4-cyanobenzyl)-1,5-dimethyl-6-((1-(methylsulfonyl)cyclopropyl)methyl)-7-oxo-4,5,6,7-tetrahydro-1H-pyrazolo[3,4-c]pyridine-3-carboxamide], the pEC50 in assay [3] (setting [6]) is 5.93.
On to `CC(N)COCC(C)(C)S(=O)(=O)C1(CN2CCc3c(C(=O)NCc4ccc(Cl)cc4)nn(C)c3C2=O)CC1` (single isomer, unassigned) [Example 97], for which the pIC50 was 9.00 in assay [1] and 7.64 in assay [2] (setting [7]).
As for `Cn1nc(C(=O)NCc2ccc(Cl)cc2)c2c1C(=O)N(CC1(S(=O)(=O)C(C)(CN)CO)CC1)CC2` (single isomer, unassigned) [Example 188], the pIC50 in assay [2] (setting [5]) was 6.97. Moreover, in assay [3] (setting [6]), the pEC50 was 6.80.
As to `CNCC(O)C(C)(C)S(=O)(=O)C1(CN2CCc3c(C(=O)NCc4ccc(Cl)cc4)nn(C)c3C2=O)CC1` (single isomer, unassigned) [Example 204], the pIC50 in assay [1] (setting [4]) is 8.52; in assay [2] (setting [5]), 7.43.
Take `CC(N)COCC(C)(C)S(=O)(=O)C1(CN2CCc3c(C(=O)NCc4ccc(Cl)cc4)nn(C)c3C2=O)CC1` (single isomer, unassigned) [Example 98]: the pIC50 in assay [1] (read-out: CMV-polymerase Biochemical IC50, 100 pM CMV polymerase, 60 minutes at room temperature) was 9.00; in assay [2] (setting [7]) it was 7.59.
For `Cn1nc(C(=O)NCc2ccc(C#N)cc2)c2c1C(=O)N(CC1(S(=O)(=O)C(C)(C)[C@H](O)CO)CC1)CC2` [Example 193, (R)—N-(4-cyanobenzyl)-6-((1-((3,4-dihydroxy-2-methylbutan-2-yl)sulfonyl)cyclopropyl)methyl)-1-methyl-7-oxo-4,5,6,7-tetrahydro-1H-pyrazolo[3,4-c]pyridine-3-carboxamide], the negative-log IC50 (pIC50) in assay [2] (setting [5]) is 7.96. For the same molecule, the pEC50 in assay [3] (Human betaherpesvirus 5, AD169, 72 h, read-out: CMV-Luc Cellular EC50, NN-NHDF cells, MOI of 1, 72 hrs) was 7.66.
Take `Cn1nc(C(=O)NCc2ccc(C#N)cc2)c2c1C(=O)N(CC1(S(=O)(=O)C(C)(C)C(O)C(C)(C)N)CC1)CC2` (single isomer, unassigned) [Example 212, (R)- or (S)-6-((1-((4-Amino-3-hydroxy-2,4-dimethylpentan-2-yl)sulfonyl)cyclopropyl)methyl)-N-(4-cyanobenzyl)-1-methyl-7-oxo-4,5,6,7-tetrahydro-1H-pyrazolo[3,4-c]pyridine-3-carboxamide]: the negative logarithm of the EC50 (pEC50) in assay [3] (setting [6]) was 8.15.
For the molecule `CC(N)COCC(C)(C)S(=O)(=O)C1(CN2CCc3c(C(=O)NCc4ccc(C#N)cc4)nn(C)c3C2=O)CC1` (single isomer, unassigned) [Example 99], the negative logarithm of the IC50 (pIC50) in assay [1] is 8.40; in assay [2] (setting [7]), 7.20.
Consider `CC(O)CC(C)(C)S(=O)(=O)C1(CN2CCc3c(C(=O)NCc4ccc(C#N)cc4)nn(C)c3C2=O)CC1` (single isomer, unassigned) [Example 116, (R)- or (S)—N-(4-Cyanobenzyl)-6-((1-((4-hydroxy-2-methylpentan-2-yl)sulfonyl)cyclopropyl)methyl)-1-methyl-7-oxo-4,5,6,7-tetrahydro-1H-pyrazolo[3,4-c]pyridine-3-carboxamide], for which, in assay [3] (setting [6]), the negative logarithm of the EC50 (pEC50) is 7.41.
With `Cn1nc(C(=O)NCc2ccc(C#N)cc2)c2c1C(=O)N(CC1(S(=O)(=O)C(C)(CN)CO)CC1)CC2` (single isomer, unassigned) [Example 184], the negative-log IC50 (pIC50) in assay [1] (setting [4]) is 8.40; in assay [2] (setting [5]) it was 7.28.
`Cn1nc(C(=O)NCc2ccc(Cl)cc2)c2c1C(=O)N(CC1(S(=O)(=O)C3(C(O)CO)CC3)CC1)CC2` (single isomer, unassigned) [Example 197]: the negative-log IC50 (pIC50) in assay [1] (setting [4]) was 9.00. Also, the negative logarithm of the EC50 (pEC50) in assay [3] (setting [6]) was 7.70.
On to `COCC(C)(CO)S(=O)(=O)C1(CN2CCc3c(C(=O)NCc4ccc(C#N)cc4)nn(C)c3C2=O)CC1` (single isomer, unassigned) [Example 182, (R)- or (S)—N-(4-Cyanobenzyl)-6-((1-((1-hydroxy-3-methoxy-2-methylpropan-2-yl)sulfonyl)cyclopropyl)methyl)-1-methyl-7-oxo-4,5,6,7-tetrahydro-1H-pyrazolo[3,4-c]pyridine-3-carboxamide], for which the pEC50 in assay [3] (setting [6]) was 7.30.
Turning to `Cn1nc(C(=O)NCc2ccc(C#N)cc2)c2c1C(=O)N(CC1(S(=O)(=O)C(C)(C)C(O)C(C)(C)N)CC1)CC2` (single isomer, unassigned) [Example 211, (R)- or (S)-6-((1-((4-Amino-3-hydroxy-2,4-dimethylpentan-2-yl)sulfonyl)cyclopropyl)methyl)-N-(4-cyanobenzyl)-1-methyl-7-oxo-4,5,6,7-tetrahydro-1H-pyrazolo[3,4-c]pyridine-3-carboxamide], the negative-log EC50 (pEC50) in assay [3] (setting [6]) was 7.55.
Same read-out and setting: for `CC1=NOC(C(C)(C)S(=O)(=O)C2(CN3CCc4c(C(=O)NCc5ccc(C#N)cc5)nn(C)c4C3=O)CC2)C1` (single isomer, unassigned) [Example 111, (R)- or (S)—N-(4-Cyanobenzyl)-1-methyl-6-((1-((2-(3-methyl-4,5-dihydroisoxazol-5-yl)propan-2-yl)sulfonyl)cyclopropyl)methyl)-7-oxo-4,5,6,7-tetrahydro-1H-pyrazolo[3,4-c]pyridine-3-carboxamide] the value was 6.80.
For the molecule `Cn1nc(C(=O)NCc2ccc(Cl)cc2)c2c1C(=O)N(CC1(S(=O)(=O)C(C)(C)C(O)CN)CC1)CC2` (single isomer, unassigned) [Example 200], the figures for the negative logarithm of the IC50 (pIC50) in assay [1] (setting [4]) and in assay [2] (setting [5]) were 9.00 and 7.85, respectively.
Consider `CC(O)Cn1nc(C(=O)NCc2ccc(C#N)cc2)c2c1C(=O)N(CC1(S(=O)(=O)C3CC3)CC1)CC2` (single isomer, unassigned) [Example 226, (R)- or (S)—N-(4-Cyanobenzyl)-6-((1-(cyclopropylsulfonyl)cyclopropyl)methyl)-1-(2-hydroxypropyl)-7-oxo-4,5,6,7-tetrahydro-1H-pyrazolo[3,4-c]pyridine-3-carboxamide], for which the pEC50 in assay [3] (setting [6]) was 7.36.
Consider `CN(C)CC(O)C(C)(C)S(=O)(=O)C1(CN2CCc3c(C(=O)NCc4ccc(Cl)cc4)nn(C)c3C2=O)CC1` (single isomer, unassigned) [Example 206], for which the pIC50 is 7.68 in assay [1] (setting [4]) and 7.13 in assay [2] (setting [5]).
On to `CC(O)COCC(C)(C)S(=O)(=O)C1(CN2CCc3c(C(=O)NCc4ccc(C#N)cc4)nn(C)c3C2=O)CC1` (single isomer, unassigned) [Example 91, (R)- or (S)—N-(4-Cyanobenzyl)-6-((1-((1-(2-hydroxypropoxy)-2-methylpropan-2-yl)sulfonyl)cyclopropyl)methyl)-1-methyl-7-oxo-4,5,6,7-tetrahydro-1H-pyrazolo[3,4-c]pyridine-3-carboxamide], for which, in assay [3] (setting [6]), the negative-log EC50 (pEC50) was 7.12.
Still for that read-out and setting: for `CC1Cc2c(C(=O)NCc3ccc(C#N)cc3)nn(C)c2C(=O)N1CC1(S(C)(=O)=O)CC1` (single isomer, unassigned) [Example 41, (R)- or (S)—N-(4-cyanobenzyl)-1,5-dimethyl-6-((1-(methylsulfonyl)cyclopropyl)methyl)-7-oxo-4,5,6,7-tetrahydro-1H-pyrazolo[3,4-c]pyridine-3-carboxamide] the value was less than 5.00.
Consider `Cn1nc(C(=O)NCc2ccc(Cl)cc2)c2c1C(=O)N(CC1(S(=O)(=O)C(C)(CN)CO)CC1)CC2` (centres unmarked) [Example 186], for which the negative-log IC50 (pIC50) in assay [2] (setting [5]) is 7.43. In addition, the pEC50 in assay [3] (NN-NHDF cells, MOI of 1, 72 hrs, read-out: CMV-Luc Cellular EC50) was 7.05.
Consider `Cn1nc(C(=O)NCc2ccc(C#N)cc2)c2c1C(=O)N(CC1(S(=O)(=O)N3CCC(C)(O)C3)CC1)CC2` (single isomer, unassigned) [Example 131, (R)- or (S)-N-(4-Cyanobenzyl)-6-((1-((3-hydroxy-3-methylpyrrolidin-1-yl)sulfonyl)cyclopropyl)methyl)-1-methyl-7-oxo-4,5,6,7-tetrahydro-1H-pyrazolo[3,4-c]pyridine-3-carboxamide], for which the negative logarithm of the IC50 (pIC50) in assay [2] (setting [5]) was 6.79. The pEC50 in assay [3] (setting [6]) is 6.65.
